The test system of one data set is SK-MEL-28. The data set can be described thus: GI50 growth inhibition, trypan blue cell count. In kind it is cell-based. The note with it: Homo sapiens, melanoma, 96 hours after addition. How it is done: (§1) The human carcinoma cell lines listed in Table 5 below were purchased from ATCC and grown in an appropriate growth medium containing 10% fetal bovine serum (FBS) and antibiotics. The cells were plated at a cell density of 1.0×10^5 cells per […] in 6-well dishes. The cells were treated with various concentrations of (E)-fluorostyryl-4-bromobenzylsulfone 24 hours after plating in a total volume of 1 ml of medium using dimethylsulfoxide (DMSO) as a solvent for the compound. Control cells were treated with DMSO alone. The total number of viable cells was determined 96 hours after the addition of the compound by counting the cells in each well using a hemacytometer after trypan blue staining (viable cells exclude the stain). The counts were done in duplicate and the average was graphed in FIG. 8 as a percentage of the non-treated control group.

Another data set has as its system MIA-PaCa-2. Nature of the data set: GI50 growth inhibition, trypan blue cell count. It counts as cell-based, human. Conditions: Homo sapiens, MIA PaCa-2; pancreatic; 96 hours after addition. How it is done: as §1
Another data set relates to U87. Nature of the data set: GI50 growth inhibition, trypan blue cell count. In kind it is cell-based, human. Conditions: Homo sapiens, U-87 MG; glioblastoma; 96 hours after addition. How it is done:
as §1

The next data set has as its system BT20. The data set can be described thus: GI50 growth inhibition, trypan blue cell count. In kind it is cell-based, human. Conditions: Homo sapiens, BT-20; breast, estrogen receptor negative; 96 hours after addition. How it is done:
as §1

For another data set, the system named is DU145. The data set can be described thus: GI50 growth inhibition, trypan blue cell count. In kind it is cell-based, human. The note with it: Homo sapiens, DU-145; prostate, androgen receptor negative; 96 hours after addition. How it is done: as §1
A further data set relates to DLD-1. The data set can be described thus: GI50 growth inhibition, trypan blue cell count. In kind it is cell-based, human. The note with it: Homo sapiens, DLD-1; cob-rectal; 96 hours after addition. How it is done:
as §1

A further data set concerns H157. The data set can be described thus: GI50 growth inhibition, trypan blue cell count. In kind it is cell-based, human. The note with it: Homo sapiens, NCI-H157; lung, non-small cell; 96 hours after addition. How it is done: as §1
Data set [1] in a line: Trypan blue exclusion viability assay, normal fibroblasts. It counts as cell-based. Further details: viability at 48 h: dose or concentration left out as unconfirmed. Conditions: mouse, NIH3T3 cells (normal fibroblasts). How it is done:
(§2) The effect of the styryl sulfones on the growth of normal and tumor cells of breast and prostate was examine utilizing four cell lines, NIH3T3, MCF-7, BT-20 and LnCap. NIH/3T3 cells represent normal fibroblasts while LnCap is an androgen-dependent prostate tumor cell line. MCF-7 is an estrogen-responsive breast tumor cell line, while BT-20 is an estrogen-unresponsive breast tumor cell line. MCF-7 and BT-20 were grown in Dulbecco's modified Eagle's medium (DMEM) containing 10% fetal bovine serum supplemented with penicillin and streptomycin. LnCaP were cultured in RPMI with 10% fetal bovine serum containing penicillin and streptomycin. NIH3T3 cells were grown in DMEM containing 10% calf serum supplemented with penicillin and streptomycin. All cell cultures were maintained at 37° C. in a humidified atmosphere of 5% CO2.
The compounds identified in Tables 2, 3 and 4 inhibited cell growth and induced cell death, to varying degrees. The tables list the percent viable LnCap and MCF-7 cells treated with 5.0 μM compound.
The percentage of living cells was determined by Trypan blue exclusion. The control cells were treated with DMSO to determine the effect of solvent on cells. […] Under these conditions, only 2-3% of NIH3T3 cells were non-viable at both the concentrations. […] After 48 hours incubation, 60-75% of the LnCaP, BT-20 and MCF-7 cells were dead at […] FRI-20 concentration, whereas more than 90% of NIH3T3 cells were viable (FIG. 2A).

For another data set, the system named is LnCaP and MCF-7 cells. The data set can be described thus: Trypan blue exclusion viability assay, Tables 2-4. In kind it is cell-based. Conditions: 5.0 μM compound, 48 hours, read-out: % viable LnCaP and MCF-7 cells. How it is done:
as §2
Cells were treated with test compound at 2.5 μM or 5.0 μM concentration and cell viability was determined after 48 hours by the Trypan blue exclusion method. The compounds identified in Tables 2, 3 and 4 inhibited cell growth and induced cell death, to varying degrees. The tables list the percent viable LnCap and MCF-7 cells treated with 5.0 μM compound.

For data set [2], the system named is LnCaP, BT-20 and MCF-7 cells. Nature of the data set: Trypan blue exclusion viability/proliferation assay (dose and time course). In kind it is cell-based. Conditions: 2.5 mM (FIG. 1A) and 5.0 mM (FIG. 1B), 48 hours of treatment.

Experimental findings from US6548553B2, “Styryl sulfone anticancer agents” (Temple University-of the Commonwealth System of Higher …, priority 1997, dated 2003) are described below.

Usually GI50 stands for the concentration that inhibits growth by half. Regarding `O=S(=O)(/C=C/c1ccc(F)cc1)Cc1ccc(Br)cc1` [Example 15, E-4-fluorostyryl 4-bromobenzyl Sulfone], the 50% growth inhibitory concentration (GI50) in the data set with SK-MEL-28 was 1 to 2 µM; in the data set with MIA-PaCa-2, less than 1 µM; in the data set on U87, 1 to 2 µM; in the data set on BT20 it was 1 to 2 µM; with DU145, 2.5 µM; with DLD-1, less than 1 µM. Moreover, the GI50 with H157 was less than 1 µM. Also, the viability at 48 h, 5 µM in data set [1] (5 μM) is more than 80%. Besides, the viability at 48 h in data set [1] (48 hours incubation, read-out: viable NIH3T3 cells) was more than 80%. In addition, in the data set with LnCaP and MCF-7 cells, the viability at 5 µM came to 7%. Moreover, in data set [2], the “inhibition of growth and induction of death of LnCaP, BT-20 and MCF-7 cells” value is “substantially inhibit the growth and induce the death”.
